Results as given in article PMC10004634 (PLOS ONE, 2023).
Like-named read-outs stand apart in the source and are kept apart here.

Tests used:
Experiment in all cases: biochemical
Set-up in all cases: KINOMEscan scanMAX competition binding, DNA-tagged kinases, qPCR read-out, percent control at 300 nM
ULK1 = molecular target: T1, ULK1 (Homo sapiens, UniProt O75385)
T1 sequence (O75385 1-1050): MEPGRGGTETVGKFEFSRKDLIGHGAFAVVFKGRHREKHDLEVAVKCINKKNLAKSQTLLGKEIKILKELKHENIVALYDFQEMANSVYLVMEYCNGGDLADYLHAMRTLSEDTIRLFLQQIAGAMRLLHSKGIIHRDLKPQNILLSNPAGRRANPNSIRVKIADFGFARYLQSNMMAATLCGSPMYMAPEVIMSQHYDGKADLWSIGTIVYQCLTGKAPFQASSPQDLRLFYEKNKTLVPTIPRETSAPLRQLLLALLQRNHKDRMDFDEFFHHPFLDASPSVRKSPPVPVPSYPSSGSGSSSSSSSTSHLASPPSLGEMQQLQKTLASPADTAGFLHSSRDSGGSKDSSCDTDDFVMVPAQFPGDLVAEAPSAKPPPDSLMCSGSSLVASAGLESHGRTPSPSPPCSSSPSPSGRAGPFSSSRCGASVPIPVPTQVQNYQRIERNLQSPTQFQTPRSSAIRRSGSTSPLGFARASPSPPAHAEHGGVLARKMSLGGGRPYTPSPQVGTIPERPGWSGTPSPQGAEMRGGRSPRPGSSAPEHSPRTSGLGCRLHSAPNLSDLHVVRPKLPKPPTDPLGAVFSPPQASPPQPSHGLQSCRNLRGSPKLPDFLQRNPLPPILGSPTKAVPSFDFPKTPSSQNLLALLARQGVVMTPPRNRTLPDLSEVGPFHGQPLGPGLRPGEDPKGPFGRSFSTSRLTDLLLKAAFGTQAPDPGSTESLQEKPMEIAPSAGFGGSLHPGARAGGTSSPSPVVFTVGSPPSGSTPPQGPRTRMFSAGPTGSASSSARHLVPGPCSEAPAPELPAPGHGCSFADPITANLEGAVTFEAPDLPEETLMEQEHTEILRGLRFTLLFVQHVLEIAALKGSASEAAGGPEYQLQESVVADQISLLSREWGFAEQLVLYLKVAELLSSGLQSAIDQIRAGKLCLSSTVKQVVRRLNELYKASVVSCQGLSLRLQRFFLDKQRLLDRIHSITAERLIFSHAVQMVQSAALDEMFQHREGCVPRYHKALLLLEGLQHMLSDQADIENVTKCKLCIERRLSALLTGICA

RIOK3 = molecular target: T2, RIOK3 (Homo sapiens, UniProt O14730)
T2 sequence (O14730 1-519): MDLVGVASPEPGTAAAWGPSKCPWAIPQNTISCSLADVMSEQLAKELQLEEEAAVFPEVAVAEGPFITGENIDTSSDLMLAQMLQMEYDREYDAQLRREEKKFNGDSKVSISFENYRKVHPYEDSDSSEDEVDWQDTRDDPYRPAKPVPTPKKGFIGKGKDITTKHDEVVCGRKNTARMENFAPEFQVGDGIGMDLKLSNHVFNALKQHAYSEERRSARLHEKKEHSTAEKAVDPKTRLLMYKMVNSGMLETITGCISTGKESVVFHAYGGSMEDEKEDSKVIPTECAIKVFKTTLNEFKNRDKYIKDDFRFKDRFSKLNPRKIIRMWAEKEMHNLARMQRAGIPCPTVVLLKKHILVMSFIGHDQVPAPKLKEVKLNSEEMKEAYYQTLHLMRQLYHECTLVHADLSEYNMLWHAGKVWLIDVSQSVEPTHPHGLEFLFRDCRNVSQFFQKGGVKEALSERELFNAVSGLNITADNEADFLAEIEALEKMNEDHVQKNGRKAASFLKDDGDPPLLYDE

[1] = molecular target: EGFR(L747-E749del, A750P) (Homo sapiens, UniProt P00533, A750P/DEL747-749)
Chain of EGFR(L747-E749del, A750P) (P00533 with tags, fused parts or gaps DEL747-749/A750P): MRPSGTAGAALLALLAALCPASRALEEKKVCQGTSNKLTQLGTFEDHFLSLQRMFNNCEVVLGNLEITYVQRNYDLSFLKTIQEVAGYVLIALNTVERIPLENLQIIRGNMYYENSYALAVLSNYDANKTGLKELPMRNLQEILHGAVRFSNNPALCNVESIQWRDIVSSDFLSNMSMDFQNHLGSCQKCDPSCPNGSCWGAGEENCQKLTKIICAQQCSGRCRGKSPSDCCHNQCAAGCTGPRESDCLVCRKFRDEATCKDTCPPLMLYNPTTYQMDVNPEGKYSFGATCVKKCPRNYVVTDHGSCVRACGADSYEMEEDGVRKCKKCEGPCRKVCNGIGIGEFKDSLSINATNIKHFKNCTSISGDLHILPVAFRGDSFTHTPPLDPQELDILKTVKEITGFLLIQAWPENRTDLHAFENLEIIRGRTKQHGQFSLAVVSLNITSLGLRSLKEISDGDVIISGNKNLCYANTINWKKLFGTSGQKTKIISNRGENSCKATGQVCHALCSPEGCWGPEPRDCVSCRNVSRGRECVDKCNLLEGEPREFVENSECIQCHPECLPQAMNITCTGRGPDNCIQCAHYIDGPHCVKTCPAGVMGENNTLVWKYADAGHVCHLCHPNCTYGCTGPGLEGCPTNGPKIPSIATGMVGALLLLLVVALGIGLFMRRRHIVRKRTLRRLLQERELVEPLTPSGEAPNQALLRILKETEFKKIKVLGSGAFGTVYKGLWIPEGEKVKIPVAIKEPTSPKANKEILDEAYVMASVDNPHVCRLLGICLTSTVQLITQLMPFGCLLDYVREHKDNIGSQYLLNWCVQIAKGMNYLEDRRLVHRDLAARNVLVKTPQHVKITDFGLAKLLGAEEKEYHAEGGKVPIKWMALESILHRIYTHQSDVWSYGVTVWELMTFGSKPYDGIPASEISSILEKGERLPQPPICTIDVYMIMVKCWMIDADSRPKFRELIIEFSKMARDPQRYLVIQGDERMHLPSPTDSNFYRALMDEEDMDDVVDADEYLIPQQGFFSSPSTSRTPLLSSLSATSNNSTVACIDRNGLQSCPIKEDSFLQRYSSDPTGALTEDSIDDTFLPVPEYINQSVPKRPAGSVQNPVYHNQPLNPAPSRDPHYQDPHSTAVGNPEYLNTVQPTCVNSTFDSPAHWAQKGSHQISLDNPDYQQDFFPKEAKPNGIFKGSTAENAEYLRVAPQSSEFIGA

IRAK1 = IRAK1 (Homo sapiens, UniProt P51617)
Chain of IRAK1 (P51617 whole entry): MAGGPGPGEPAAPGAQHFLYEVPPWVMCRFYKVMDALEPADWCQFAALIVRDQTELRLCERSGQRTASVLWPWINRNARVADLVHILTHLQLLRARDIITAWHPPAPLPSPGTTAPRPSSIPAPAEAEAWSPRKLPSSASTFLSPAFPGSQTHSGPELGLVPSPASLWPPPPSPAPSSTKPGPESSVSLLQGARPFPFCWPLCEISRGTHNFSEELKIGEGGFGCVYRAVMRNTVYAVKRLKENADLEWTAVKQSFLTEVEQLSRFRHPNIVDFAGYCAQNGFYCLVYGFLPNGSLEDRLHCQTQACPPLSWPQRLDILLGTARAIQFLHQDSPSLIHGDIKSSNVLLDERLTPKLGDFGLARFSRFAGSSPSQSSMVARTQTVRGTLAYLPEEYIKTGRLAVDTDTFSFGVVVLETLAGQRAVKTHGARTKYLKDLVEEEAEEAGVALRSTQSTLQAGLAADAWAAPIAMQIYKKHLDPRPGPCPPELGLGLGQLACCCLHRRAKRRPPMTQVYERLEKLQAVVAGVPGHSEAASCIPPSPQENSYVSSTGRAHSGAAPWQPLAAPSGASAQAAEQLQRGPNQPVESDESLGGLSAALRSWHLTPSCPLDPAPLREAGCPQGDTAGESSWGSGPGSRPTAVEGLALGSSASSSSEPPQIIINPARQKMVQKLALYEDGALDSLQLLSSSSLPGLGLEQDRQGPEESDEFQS

FLT1 = FLT1 (Homo sapiens, UniProt P17948)
Chain of FLT1 (P17948 whole entry): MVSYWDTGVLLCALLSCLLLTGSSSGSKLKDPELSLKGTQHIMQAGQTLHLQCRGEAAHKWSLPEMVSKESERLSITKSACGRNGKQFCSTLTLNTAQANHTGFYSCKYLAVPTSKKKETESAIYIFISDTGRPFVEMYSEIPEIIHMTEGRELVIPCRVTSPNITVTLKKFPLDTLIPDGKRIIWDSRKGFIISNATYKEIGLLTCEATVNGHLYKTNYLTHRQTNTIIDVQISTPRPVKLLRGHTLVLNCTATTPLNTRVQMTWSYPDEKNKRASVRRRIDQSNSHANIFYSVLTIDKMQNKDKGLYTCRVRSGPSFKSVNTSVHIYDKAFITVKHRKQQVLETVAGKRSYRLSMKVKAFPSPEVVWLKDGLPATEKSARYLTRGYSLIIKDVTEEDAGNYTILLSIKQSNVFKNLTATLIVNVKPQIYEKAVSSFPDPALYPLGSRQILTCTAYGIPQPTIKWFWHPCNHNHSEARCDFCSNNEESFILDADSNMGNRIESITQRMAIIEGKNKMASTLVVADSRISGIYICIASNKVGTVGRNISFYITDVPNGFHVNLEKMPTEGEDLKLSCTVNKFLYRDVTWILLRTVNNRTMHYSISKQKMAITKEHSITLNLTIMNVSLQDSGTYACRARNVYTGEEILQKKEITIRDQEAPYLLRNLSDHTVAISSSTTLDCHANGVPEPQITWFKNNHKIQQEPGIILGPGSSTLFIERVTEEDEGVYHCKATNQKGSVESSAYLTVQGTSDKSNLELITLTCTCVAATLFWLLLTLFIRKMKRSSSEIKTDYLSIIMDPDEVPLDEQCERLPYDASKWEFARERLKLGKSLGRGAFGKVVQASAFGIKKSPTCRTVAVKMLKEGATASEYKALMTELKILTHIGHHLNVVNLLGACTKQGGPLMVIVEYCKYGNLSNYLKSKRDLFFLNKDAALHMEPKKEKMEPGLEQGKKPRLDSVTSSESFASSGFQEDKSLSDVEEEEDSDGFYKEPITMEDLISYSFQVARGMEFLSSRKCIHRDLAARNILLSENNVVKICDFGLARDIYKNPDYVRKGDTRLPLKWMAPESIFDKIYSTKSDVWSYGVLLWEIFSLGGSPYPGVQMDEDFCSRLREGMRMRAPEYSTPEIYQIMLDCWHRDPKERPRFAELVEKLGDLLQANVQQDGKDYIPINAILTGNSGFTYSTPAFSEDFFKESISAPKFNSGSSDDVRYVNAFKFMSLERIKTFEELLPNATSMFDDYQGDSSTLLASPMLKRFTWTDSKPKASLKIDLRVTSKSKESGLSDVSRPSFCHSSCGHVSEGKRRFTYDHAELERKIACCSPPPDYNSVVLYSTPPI

TYRO3 = molecular target: T3, TYRO3 (Homo sapiens, UniProt Q06418)
T3 sequence (Q06418 1-890): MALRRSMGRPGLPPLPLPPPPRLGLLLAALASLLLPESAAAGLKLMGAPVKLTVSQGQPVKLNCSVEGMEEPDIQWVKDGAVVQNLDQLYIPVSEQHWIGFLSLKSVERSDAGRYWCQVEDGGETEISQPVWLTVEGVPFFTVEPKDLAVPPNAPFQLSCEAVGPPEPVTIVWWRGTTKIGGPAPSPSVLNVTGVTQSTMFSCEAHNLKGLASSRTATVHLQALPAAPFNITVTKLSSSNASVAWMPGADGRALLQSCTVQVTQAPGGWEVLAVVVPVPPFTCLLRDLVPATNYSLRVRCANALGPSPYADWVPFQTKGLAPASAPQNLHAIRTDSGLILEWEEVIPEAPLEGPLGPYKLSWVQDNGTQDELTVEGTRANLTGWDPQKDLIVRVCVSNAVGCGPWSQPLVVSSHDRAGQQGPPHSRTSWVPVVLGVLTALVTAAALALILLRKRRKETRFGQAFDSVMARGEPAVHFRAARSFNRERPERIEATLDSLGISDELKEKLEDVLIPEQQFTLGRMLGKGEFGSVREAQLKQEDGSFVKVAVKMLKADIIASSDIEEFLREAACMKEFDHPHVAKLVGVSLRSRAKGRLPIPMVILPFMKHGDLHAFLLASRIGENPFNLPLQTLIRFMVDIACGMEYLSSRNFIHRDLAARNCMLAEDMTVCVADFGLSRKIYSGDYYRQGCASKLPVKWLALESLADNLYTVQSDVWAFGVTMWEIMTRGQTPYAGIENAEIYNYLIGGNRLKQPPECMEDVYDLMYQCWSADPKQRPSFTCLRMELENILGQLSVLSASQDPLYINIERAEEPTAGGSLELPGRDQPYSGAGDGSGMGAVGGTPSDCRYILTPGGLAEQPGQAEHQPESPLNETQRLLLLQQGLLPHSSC

[2] = read-out: Percent control / Acalabrutinib
[3] = read-out: Percent control / Ibrutinib
[4] = read-out: Percent control / Tirabrutinib
[5] = read-out: Percent control / Zanubrutinib

CC#CC(=O)N1CCC[C@H]1c1nc(-c2ccc(C(=O)Nc3ccccn3)cc2)c2c(N)nccn12 [Acalabrutinib]
remaining binding at 0.3 µM (ULK1; [2]): 95%
remaining binding at 0.3 µM (RIOK3; [2]): 90%
remaining binding at 0.3 µM [1, 2]: 91%
remaining binding at 0.3 µM (IRAK1; [2]): 90%
remaining binding at 0.3 µM (FLT1; [2]): 89%

C=CC(=O)N1CCC[C@@H](n2nc(-c3ccc(Oc4ccccc4)cc3)c3c(N)ncnc32)C1 [Ibrutinib]
remaining binding at 0.3 µM (ULK1; [3]): 85%
remaining binding at 0.3 µM (RIOK3; [3]): 89%
remaining binding at 0.3 µM [1, 3]: 10%
remaining binding at 0.3 µM (IRAK1; [3]): 89%
remaining binding at 0.3 µM (TYRO3; [3]): 61%
remaining binding at 0.3 µM (FLT1; [3]): 82%

CC#CC(=O)N1CC[C@@H](n2c(=O)n(-c3ccc(Oc4ccccc4)cc3)c3c(N)ncnc32)C1 [Tirabrutinib]
remaining binding at 0.3 µM (ULK1; [4]): 74%
remaining binding at 0.3 µM [1, 4]: 69%
remaining binding at 0.3 µM (TYRO3; [4]): 99%
remaining binding at 0.3 µM (FLT1; [4]): 74%

C=CC(=O)N1CCC([C@@H]2CCNc3c(C(N)=O)c(-c4ccc(Oc5ccccc5)cc4)nn32)CC1 [Zanubrutinib]
remaining binding at 0.3 µM (ULK1; [5]): 100%
remaining binding at 0.3 µM (RIOK3; [5]): 100%
remaining binding at 0.3 µM (IRAK1; [5]): 100%
remaining binding at 0.3 µM (TYRO3; [5]): 80%
